The assay concerns the target T1, Rat Hepatic Microsomal HMG-CoA reductase (HMGR) (Rattus norvegicus, UniProt P51639).
T1 construct: Microsomes prepared from liver of rats administered with cholestyramine; from tissue
T1 sequence (P51639 1-887): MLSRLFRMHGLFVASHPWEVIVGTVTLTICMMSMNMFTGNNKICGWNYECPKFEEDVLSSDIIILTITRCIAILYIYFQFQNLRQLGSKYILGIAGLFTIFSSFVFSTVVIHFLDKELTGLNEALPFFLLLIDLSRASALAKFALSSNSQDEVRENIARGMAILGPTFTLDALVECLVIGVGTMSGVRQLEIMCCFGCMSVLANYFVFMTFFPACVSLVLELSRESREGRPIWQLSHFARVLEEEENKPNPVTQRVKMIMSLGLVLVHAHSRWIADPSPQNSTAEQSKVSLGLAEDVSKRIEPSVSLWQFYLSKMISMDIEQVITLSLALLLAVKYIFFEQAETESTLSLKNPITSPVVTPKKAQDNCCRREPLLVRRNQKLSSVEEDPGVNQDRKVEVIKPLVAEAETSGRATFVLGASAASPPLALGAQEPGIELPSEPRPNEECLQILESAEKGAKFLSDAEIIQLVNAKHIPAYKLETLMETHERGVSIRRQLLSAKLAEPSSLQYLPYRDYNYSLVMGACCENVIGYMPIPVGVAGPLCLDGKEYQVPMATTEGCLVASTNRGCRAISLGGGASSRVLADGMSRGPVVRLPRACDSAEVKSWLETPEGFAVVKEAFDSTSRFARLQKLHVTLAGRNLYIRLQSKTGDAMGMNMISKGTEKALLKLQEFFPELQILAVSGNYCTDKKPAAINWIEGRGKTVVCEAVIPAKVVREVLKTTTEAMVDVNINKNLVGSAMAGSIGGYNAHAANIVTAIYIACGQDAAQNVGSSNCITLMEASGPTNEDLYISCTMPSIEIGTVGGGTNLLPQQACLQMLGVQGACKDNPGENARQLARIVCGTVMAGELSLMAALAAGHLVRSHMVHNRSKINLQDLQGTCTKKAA
Nature of the assay: Inhibitory activity against rat hepatic microsomal HMG-CoA reductase (14C-HMG-CoA substrate, 14C-mevalonolactone measured by TLC and scintillation counting). The class given is biochemical. Conditions: microsomes from liver of rats administered with cholestyramine, incubated for 10 minutes; for inhibition at 1 µM: Concentration of test compound 10^-6 M. As for the experimental part:
Experiment: Inhibitory activity against Rat Hepatic Microsomal HMG-CoA reductase (HMGR)
HMGR activities of microsomes are measured in accordance with the method of N. L. Young et al., Methods in Enzymology, 71, 498 (1981).
Microsomes prepared from liver of rats administered with cholestyramine were mixed with a solution of the compounds to be tested in dimethyl sulfoxide and ¹⁴C-HMG-CoA (substrate). After the mixture was incubated for 10 minutes, the reaction was quenched with 6N hydrochloric acid and the mixture was allowed to stand at 37°C for 15 minutes, followed by centrifugation. The supernatant was spotted on thin layer chromatography (TLC; Kieselgel 60F254 manufactured by Merck) and developed with toluene/acetone (1:1). The spot of ¹⁴C-mevalonolactone was collected and the amount of isotope was measured with a scintillation counter (Type 4640 TRI-CARB. manufactured by Paccard) to calculate an amount of the formed mevalonolactone. By comparing amounts of the formed mevalonolactone in the group treated with test compounds and the control group (without test compounds), HMGR activity inhibition rates of the test compounds were calculated.

For orientation: inhibition means the share of the control response that was lost under treatment. Low readings indicate a response near the control, high ones a response far below the control.

Compound `O=C(O)C[C@H](O)C[C@H](O)/C=C/C(=C(c1ccc(F)cc1)c1ccc(F)cc1)c1ccccc1` (racemic) [(±)-(3R*,5S*) [r3]] came in with an inhibition at 1 µM of 79%. The same compound displayed an inhibition at 100 µM (Concentration of test compound 10^-4 M) of 96%.

Regarding `O=C(O)C[C@H](O)C[C@H](O)/C=C/C(=C(c1ccc(F)cc1)c1ccc(F)cc1)c1ccco1` (single isomer, unassigned) [(-)-(3R*,5S*)], 1 µM produced 93% inhibition.
